Source: article PMC10167355, “Optimized spirooxindole-pyrazole hybrids targeting the p53-MDM2 interplay induce apoptosis and synergize with doxorubicin in A549 cells” (Scientific Reports, 2023)
Entries after “also recorded” stand apart in the source; their conditions may differ.

Legend:
activated PBL = assay: MTT assay on normal PBL activated with PHA and recombinant IL-2; assay type: cell-based; settings: Homo sapiens, mean ± SD of 4–6 IC50 values
Experimental: (§1) Human tumor cell lines A2780 [ovary, adenocarcinoma, accession number HTL98008, obtained from Interlab Cell Line Collection (ICLC), Genova, Italy], A549 (lung, carcinoma, HTL03001, ICLC), MDA-MB-453 (breast, carcinoma, HTL01013, ICLC), and HepG2 (liver, carcinoma, HB-8065, American Type Culture Collection, Rockville, MA, USA ) were plated at 1.4 × 10^4/ml, 0.65 × 10^4/mL, 4.7 × 10^4/mL, and 1.0 × 10^4/mL, respectively, in 180 μL complete medium (RPMI 1640 for A2780 and A549 and DMEM for MDA-MB-453 and HepG2) into flat-bottomed 96-well microtiter plates. After 6–8 h cells were treated with 20 μL containing five 1:10 fold concentrations of our compounds diluted in FCS containing 3% DMSO. As normal non-cancer cell targets we used peripheral blood lymphocytes obtained from three healthy volunteers, isolated by gradient centrifugation (Lympholyte-H Cell Separation Media, EuroClone, Pero, MI, Italy) and stimulated with 1% phytohemagglutinin and 100 U/ml recombinant IL-2. One week after stimulation cells were ready for use at 15,000/well.
In both cases, after 72 h treatment, the MTT assay was applied as described elsewhere. […] IC100 and IC75 were extrapolated from the mean concentration–response curves.

p53 = assay: Western blot of p53 level in A549 cells; assay type: cell-based, human
Experimental: (§2) A549 cells were treated with different concentrations of the molecules as indicated. Cell extracts were prepared as described. Ten-20 μg of total proteins were resolved on 4–15% Mini protean TGX precast gels (Bio-Rad) and transferred to nitrocellulose membrane using 1704158 Trans-Blot Turbo Mini NC Transfer Packs (Bio-Rad) in a Trans-Blot Turbo apparatus (Bio-Rad). Membranes were blocked with 5% non-fat dry milk in 0.1% Tween-20 in PBS for 1 h, then incubated for 1 h at room temperature or overnight at 4 °C with the appropriate primary antibody. The following antibodies were employed: anti-p53 (DO-1, sc-126, Santa Cruz Biotechnology, 1:20.000), anti-p21 (2946, Cell Signaling, 1:2000), anti-MDM2 (SMP14, sc-965, Santa Cruz Biotechnology, 1:200), anti β-actin (AC-74, Sigma-Aldrich, 1:30.000); secondary anti-mouse IgG peroxidase conjugate (A9044, Sigma–Aldrich, 1:10.000) and secondary anti-rabbit peroxidase conjugate (A9169, Sigma-Aldrich, 1: 12.000). Detection was carried out with ECL FAST PICO (ECL-1002, Immunological Sciences, Roma, Italy). Chemiluminescence was analysed by Alliance LD, UVITEC Cambridge (Cambridge, UK).

A549 cells = assay: Annexin-V-FITC / propidium iodide apoptosis assay; assay type: cell-based, human; settings: A549, compounds at their specific IC75s, three days
Experimental: The induction of apoptosis was evaluated in A549 cells characterized by wild-type p53 and MDM2 proteins. They were plated at the opportune concentration (see above) into 25 cm^2 flasks in 10 mL complete medium. After 6–8 h the compounds were added at their specific IC75s, as previously calculated by the MTT assay.
All floating and adherent cells were harvested three days later, washed with normal saline buffer, and apoptosis determined by double staining with Annexin-V-FITC and propidium iodide (PI) (rh AnnexinV/FITC Kit, Bender MedSystem GmbH, Vienna, Austria). Briefly, 0.5 × 10^6 cells were resuspended in binding buffer 1× and stained with 5 μL of Annexin-V-FITC. After 10 min incubation 10 μL of PI were added and samples incubated for 5 min. Samples were immediately analyzed using a Flow Cytometer (FACScan, BD Biosciences, Milano, Italy) with dedicated software.

MDM2 = assay: Western blot of MDM2 level in A549 cells; assay type: cell-based, human
Experimental: as §2

[1] = system: MDA-MB-453 (breast; mutant p53); assay: MTT antiproliferative assay, MDA-MB-453; assay type: cell-based; settings: Homo sapiens; MDA-MB-453, MTT, 72 h treatment, mean ± SD of 5–6 data
Experimental: as §1
In both cases, after 72 h treatment, the MTT assay was applied as described elsewhere. The IC50 values were calculated from the analysis of single concentration–response curves, each final value is the mean of 5–6 experiments. IC100 and IC75 were extrapolated from the mean concentration–response curves.

p21 = assay: Western blot of p21 level in A549 cells; assay type: cell-based, human; settings: A549
Experimental: as §2

[2] = A549, drug concentration equivalent to IC75 (30 µM), fold over mock
[3] = A549, 0.2 µM derivative alone or 14 µM doxorubicin alone
[4] = A549, 0.2 µM derivative plus 14 µM doxorubicin

## Cc1c(C(=O)C2C(c3ccc(C(F)(F)F)cc3)C3CSCN3C23C(=O)Nc2ccccc23)cnn1-c1ccccc1 (stereo not drawn) [8k, 6'-(5-Methyl-1-phenyl-1H-pyrazole-4-carbonyl)-7'-(4-(trifluoromethyl)phenyl)-1',6',7',7a'-tetrahydro-3'H-spiro[indoline-3,5'-pyrrolo[1,2-c]thiazol]-2-one]
Activated PBL; PBL A
  IC50: 49.8 ± 3.2 µM
Activated PBL; PBL B
  IC50: 55.3 ± 1.4 µM
Activated PBL; PBL C
  IC50: 50.9 ± 1.2 µM
p53; [2]
  p53 level: did not induce any changes; also recorded: did not induce p53
p53; [3]
  p53 level, single agent: did not increase
p53; [4]
  p53 level, combined treatment compared to doxorubicin alone: no further increases
A549 cells
  apoptotic activity: highly significant apoptotic activity; also recorded: considerable high level of apoptosis
other
  melting point: 138 to 139 °C
MDM2; A549, 24 h, 0.01, 0.1, 1, 10 µM
  MDM2 modulation, dose–response: induced MDM2 down regulation at any concentration; also recorded: dose-dependent down regulation of MDM2
MDM2; [2]
  MDM2 level: downmodulated MDM2; also recorded: clear down modulation; also recorded: down regulation of MDM2
MDM2; [3]
  MDM2 level, single agent: slight but not significant MDM2 increase
MDM2; [4]
  MDM2 level, combined treatment compared to doxorubicin alone: no further increases
[1]
  IC50: 21.4 µM
p21; 0.2 µM derivative alone or 14 µM doxorubicin alone
  p21 level, single agent: did not increase
p21; 0.2 µM derivative plus 14 µM doxorubicin
  p21 level, combined treatment compared to doxorubicin alone: no further increases
